Measured values published in patent US20100298252A1, “METHODS AND COMPOSITIONS FOR OPHTHALMIC TREATMENT OF FUNGAL AND BACTERIAL INFECTIONS” (priority 2004, published 2010).
≈ marks a conversion by molar mass, not a printed value. Read-outs that look alike come from different tables or passages of the source.

How the values were obtained:
[1] = tested on: Curvularia sp.; assay: Antifungal MIC 50 / MIC 90 alone and combined with Tricide; type: cell-based; conditions: for % decrease MIC 50 / % decrease MIC 90 / MIC 50 combined with Tricide / MIC 90 combined with Tricide: Curvilaria sp., Tricide 200 ug/ml; for Summary % reduction in MIC 50 using Tricide / Summary % reduction in MIC 90 using Tricide / MIC50 / MIC90: Curvularia sp.; for MIC50 / MIC90: antifungal alone;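 on all read-outs here: antifungal MIC 50 and MIC 90 values against fungal isolates, with percent figures expressing how much the MIC fell once Tricide was added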
[2] = tested on: Paecilomyces variotti ATCC 36257; assay: as above; type: cell-based; conditions: for MIC50 / MIC90: ATCC36257
[3] = tested on: Fusarium sp. 3; assay: microbe, parasite or virus in culture; type: cell-based; conditions: for % decrease MIC 50 / % decrease MIC 90 / MIC 50 combined with Tricide / MIC 90 combined with Tricide: Tricide 540 ug/ml; for MIC50 / MIC90: antifungal alone
[4] = tested on: Fusarium sp. 2; assay: microbe, parasite or virus in culture; type: cell-based; conditions: for MIC50 / MIC90: antifungal alone
[5] = tested on: Penicillium sp.; assay: Antifungal MIC 50 / MIC 90 alone and combined with Tricide; type: cell-based; conditions: for % decrease MIC 50 / % decrease MIC 90 / MIC 50 combined with Tricide / MIC 90 combined with Tricide: Tricide 200 ug/ml; for MIC50 / MIC90: antifungal alone
[6] = tested on: Cladosporium sp.; assay: as above; type: cell-based; conditions: for MIC50 / MIC90: antifungal alone
[7] = tested on: Aspergillus sp.; assay: as above; type: cell-based; conditions: for % decrease MIC 50 / % decrease MIC 90 / MIC 50 combined with Tricide / MIC 90 combined with Tricide: Aspergillus sp., Tricide 200 ug/ml; for MIC50 / MIC90: Aspergillus, antifungal alone; for MIC50 / MIC90 / Summary % reduction in MIC 50 using Tricide / Summary % reduction in MIC 90 using Tricide: Aspergiullus sp.
[8] = tested on: Fusarium sp. 1; assay: microbe, parasite or virus in culture; type: cell-based; conditions: for Summary % reduction in MIC 50 using Tricide / Summary % reduction in MIC 90 using Tricide: Fasarium sp. 1; for % decrease MIC 50 / % decrease MIC 90 / MIC 90 combined with Tricide / MIC50 / MIC90: Fusarium sp. 1; for % decrease MIC 50 / % decrease MIC 90 / MIC 90 combined with Tricide: Tricide 540 ug/ml; for MIC50 / MIC90: antifungal alone;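 on all read-outs here: mean MIC 50 and MIC 90 values against fungal isolates, with percent decrease in MIC when the antifungal is combined with Tricide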
[9] = tested on: Candidia albicans ATCC 90028; assay: Antifungal MIC 50 / MIC 90 alone and combined with Tricide; type: cell-based, Candida albicans; conditions: for MIC50 / MIC90 / % decrease MIC 50 / % decrease MIC 90 / MIC 50 combined with Tricide: Candida albicans; for MIC50 / MIC90: ATCC90028, antifungal alone; for MIC50 / MIC90 / Summary % reduction in MIC 50 using Tricide / Summary % reduction in MIC 90 using Tricide: Candidia albicans ATCC 90028; for % decrease MIC 50 / % decrease MIC 90 / MIC 50 combined with Tricide: Tricide […];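 on all read-outs here: MIC 50 and MIC 90 values are means, and the percent decrease is the drop in MIC when the antifungal is combined with Tricide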
[10] = Paecilomyces variotti ATCC36257
[11] = Paecilomyces variotti, Tricide […]

CC(=O)N1CCN(c2ccc(OCC3COC(Cn4ccnc4)(c4ccc(Cl)cc4Cl)O3)cc2)CC1 (centres unmarked) [Ketoconazole, ketoconazole]
% decrease MIC 50 [1]: 96.3-100%^ | % decrease MIC 90 [1]: 74-100% ^ | MIC 50 combined with Tricide [1]: 0 to 0.0250 µg/mL | MIC 90 combined with Tricide [1]: 0 to 0.4 µg/mL | Summary % reduction in MIC 50 using Tricide [1]: 96.3%-100% | Summary % reduction in MIC 90 using Tricide [1]: 74%-100% | MIC50 [1]: 0.667 µg/mL | MIC90 [1]: 1.56 µg/mL | Summary % reduction in MIC 50 using Tricide [2, 10]: 100% | Summary % reduction in MIC 90 using Tricide [2, 10]: 75% | % decrease MIC 50 [2, 11]: 100% | % decrease MIC 90 [2, 11]: 75% | MIC 50 combined with Tricide [2, 11]: 0 µg/mL | MIC 90 combined with Tricide [2, 11]: 0.25 µg/mL | MIC50 ([2]; Paecilomyces): 0.0382 µg/mL | MIC90 ([2]; Paecilomyces): 1 µg/mL | Summary % reduction in MIC 50 using Tricide [3]: 100% | Summary % reduction in MIC 90 using Tricide [3]: 100% | % decrease MIC 50 [3]: 100% | % decrease MIC 90 [3]: 100% | MIC 50 combined with Tricide [3]: 0 µg/mL | MIC 90 combined with Tricide [3]: 0 µg/mL | MIC50 [3]: > 128 µg/mL | MIC90 [3]: > 128 µg/mL | Summary % reduction in MIC 50 using Tricide [4]: >99.5%-100% | Summary % reduction in MIC 90 using Tricide [4]: 99.9%-100% | % decrease MIC 50 ([4]; Tricide 540 ug/ml): >99.5-100% ^ | % decrease MIC 90 ([4]; Tricide 540 ug/ml): >99.9-100% ^ | MIC50 [4]: 11.2 µg/mL (≈ 21.1 µM) | MIC90 [4]: 64 µg/mL (≈ 120 µM) | Summary % reduction in MIC 50 using Tricide [5]: 100% | Summary % reduction in MIC 90 using Tricide [5]: 100% | % decrease MIC 50 [5]: 100% | % decrease MIC 90 [5]: 100% | MIC 50 combined with Tricide [5]: 0 µg/mL | MIC 90 combined with Tricide [5]: 0 µg/mL | MIC50 [5]: 0.181 µg/mL | MIC90 [5]: 0.5 µg/mL | Summary % reduction in MIC 50 using Tricide [6]: 75% | Summary % reduction in MIC 90 using Tricide [6]: 94% | % decrease MIC 50 ([6]; Tricide 200 ug/ml): >75% | % decrease MIC 90 ([6]; Tricide 200 ug/ml): 94% | MIC 90 combined with Tricide ([6]; Tricide 200 ug/ml): 0.125 µg/mL | MIC50 [6]: 0.5 µg/mL | MIC90 [6]: 2 µg/mL | % decrease MIC 50 [7]: 87.5% | % decrease MIC 90 [7]: 95.8% | MIC 50 combined with Tricide [7]: 0.25 µg/mL | MIC 90 combined with Tricide [7]: 0.5 µg/mL | MIC50 [7]: 2 µg/mL | MIC90 [7]: 12 µg/mL | Summary % reduction in MIC 50 using Tricide [7]: 87.5% | Summary % reduction in MIC 90 using Tricide [7]: 95.8% | Summary % reduction in MIC 50 using Tricide [8]: >99.9%-100% | Summary % reduction in MIC 90 using Tricide [8]: 99.9%-100% | % decrease MIC 50 [8]: >99.9-100% ^ | % decrease MIC 90 [8]: 99.9-100%^ | MIC 90 combined with Tricide [8]: 0 to 0.05 µg/mL | MIC50 [8]: > 128 µg/mL | MIC90 [8]: > 128 µg/mL | MIC50 [9]: 0.0313 µg/mL | MIC90 [9]: > 1 µg/mL | % decrease MIC 50 [9]: 100% | % decrease MIC 90 [9]: 100% | MIC 50 combined with Tricide [9]: 0 µg/mL | Summary % reduction in MIC 50 using Tricide [9]: 100% | Summary % reduction in MIC 90 using Tricide [9]: 100%

Clc1ccc(COC(Cn2ccnc2)c2ccc(Cl)cc2Cl)c(Cl)c1 (centres unmarked) [Miconazole, miconazole]
% decrease MIC 50 [1]: 99-100% ^ | % decrease MIC 90 [1]: 90-100% ^ | MIC 50 combined with Tricide [1]: 0 to 0.0250 µg/mL | MIC 90 combined with Tricide [1]: 0 to 0.4 µg/mL | Summary % reduction in MIC 50 using Tricide [1]: 99-100% ^ | Summary % reduction in MIC 90 using Tricide [1]: 90-100% ^ | MIC50 [1]: 3.11 µg/mL | MIC90 [1]: 4 µg/mL | MIC50 ([2]; Paecilomyces variotti ATCC 36257, antifungal alone, read-out: MIC 50): 0.0764 µg/mL | MIC90 ([2]; Paecilomyces variotti ATCC 36257, antifungal alone, read-out: MIC 90): > 1 µg/mL | Summary % reduction in MIC 50 using Tricide [2, 10]: 97.4% | % decrease MIC 50 [2, 11]: 97.4% | MIC 50 combined with Tricide [2, 11]: 0.002 µg/mL | MIC 90 combined with Tricide [2, 11]: >1 µg/mL | Summary % reduction in MIC 50 using Tricide [3]: 100% | Summary % reduction in MIC 90 using Tricide [3]: 100% | % decrease MIC 50 [3]: 100% | % decrease MIC 90 [3]: 100% | MIC 50 combined with Tricide [3]: 0 µg/mL | MIC 90 combined with Tricide [3]: 0 µg/mL | MIC50 [3]: > 128 µg/mL | MIC90 [3]: > 128 µg/mL | Summary % reduction in MIC 50 using Tricide [4]: >99.9%-100% | Summary % reduction in MIC 90 using Tricide [4]: 99.9%-100% | % decrease MIC 50 ([4]; Tricide 540 ug/ml): >99.9-100% ^ | % decrease MIC 90 ([4]; Tricide 540 ug/ml): 99.9-100%^ | MIC 90 combined with Tricide ([4]; Tricide 540 ug/ml): 0.05 µg/mL | MIC50 [4]: > 128 µg/mL | MIC90 [4]: > 128 µg/mL | Summary % reduction in MIC 50 using Tricide [5]: 100% | Summary % reduction in MIC 90 using Tricide [5]: 100% | % decrease MIC 50 [5]: 100% | % decrease MIC 90 [5]: 100% | MIC 50 combined with Tricide [5]: 0 µg/mL | MIC 90 combined with Tricide [5]: 0 µg/mL | MIC50 [5]: 0.181 µg/mL | MIC90 [5]: 0.361 µg/mL | Summary % reduction in MIC 50 using Tricide [6]: 97% | Summary % reduction in MIC 90 using Tricide [6]: 98% | % decrease MIC 50 ([6]; Tricide 200 ug/ml): >97% | % decrease MIC 90 ([6]; Tricide 200 ug/ml): 98% | MIC 50 combined with Tricide ([6]; Tricide 200 ug/ml): <0.125 µg/mL | MIC 90 combined with Tricide ([6]; Tricide 200 ug/ml): 0.25 µg/mL | MIC50 [6]: 4 µg/mL | MIC90 [6]: 16 µg/mL | % decrease MIC 50 [7]: 96% | % decrease MIC 90 [7]: 84% | MIC 50 combined with Tricide [7]: 0.1250 µg/mL | MIC 90 combined with Tricide [7]: 2 µg/mL | MIC50 [7]: 3.11 µg/mL | MIC90 [7]: 12.4 µg/mL | Summary % reduction in MIC 50 using Tricide [7]: 96% | Summary % reduction in MIC 90 using Tricide [7]: 84% | Summary % reduction in MIC 50 using Tricide [8]: >99.8%-100% | Summary % reduction in MIC 90 using Tricide [8]: 99.8%-100% | % decrease MIC 50 [8]: >99.8-100% ^ | % decrease MIC 90 [8]: 99.8-100%^ | MIC 90 combined with Tricide [8]: 0 to 0.05 µg/mL | MIC50 [8]: > 128 µg/mL | MIC90 [8]: > 128 µg/mL | MIC50 [9]: 0.5 µg/mL | MIC90 [9]: > 1 µg/mL | % decrease MIC 50 [9]: 100% | % decrease MIC 90 [9]: 100% | MIC 50 combined with Tricide [9]: 0 µg/mL | Summary % reduction in MIC 50 using Tricide [9]: 100% | Summary % reduction in MIC 90 using Tricide [9]: 100%
